Source: patent US20240182453A1, “NOVEL SUBSTITUTED PYRAZINE-CARBOXAMIDE DERIVATIVES” (Boehringer Ingelheim International GmbH, priority 2022, published 2024)

Molecular target: human metabotropic Glutamate 4 receptor (mGluR4) (Homo sapiens (Human), UniProt Q14833)
Assay: Assay A: in vitro testing of mGluR4 potency (glutamate-induced cAMP lowering, HTRF cAMP)
Assay type: cell-based
Conditions: HEK293 cells overexpressing human mGluR4; 10 uM L-glutamic acid, 1 uM forskolin; compounds of the present invention
Protocol: A. In Vitro Testing of mGluR4 Potency
The in vitro activity of the compounds according to the invention may be investigated as follows:
The HEK293 cell overexpressing the human metabotropic Glutamate 4 receptor are thawed at 37° C. and immediately diluted with cell culture medium. After centrifugation, the cell pellet is re-suspended in medium and then distributed from a stirred spinner flask into the wells of the assay plate. The plates are incubated for one hour at room temperature before they are incubated for 24 hours at 37° C./5% CO2. After washing the cells in the plate three times with 80 uL HBSS/HEPES buffer (10 uL buffer remained in the wells after washing), 5 uL per well of compounds diluted in HBSS/HEPES buffer containing 0.2% BSA (final concentration: 0.1%) and 1 mM IBMX (final concentration: 0.5 mM) are added to the wells of the assay plate. Thereafter 5 uL per well of L-Glutamic acid (final concentration: 10 uM), forskolin (final concentration: 1 uM) and 1 mM IBMX (final concentration: 0.5 mM) dissolved in HBSS/HEPES buffer containing 0.2% BSA (final concentration: 0.1%) are added to the assay plate (final DMSO concentration: 1%). Several wells of the assay plate are used either for the positive and the negative controls or for the cAMP standard curve. The assay plate is incubated for 30 minutes at room temperature. Then 5 ul per well of Anti-cAMP-Antibody-d2 solution and 5 ul per well of cAMP-Europium Cryptate dilution are added to all wells of the plate and the plate is incubated another 60 minutes light protected at room temperature. The emission at 615 nm and 665 nm (Excitation wavelength: 320 nm) are measured on the EnVision™ reader (Perkin Elmer). The ratio between the emission at 665 nm and 615 is calculated by the reader. The whole assay is performed in the dark or under green light.
The cAMP standard is prepared by diluting the cAMP stock solution with HBSS/Hepes buffer: 5 μl/well of the cAMP dilutions (in HBSS/Hepes buffer containing 1 mM IBMX and 0.2% BSA—final concentration: 0.5 mM IBMX and 0.1% BSA) are added to 10 ul/well HBSS/Hepes buffer plus 5 ul/well 4% DMSO in HBSS/Hepes containing 0.2% BSA (final DMSO concentration: 1%—like in the wells containing compounds) in the wells of the assay plate. The final cAMP concentrations in the assay plate are: 0, 0.17, 0.69, 2.78, 11.1, 44.5, 178, and 712 nM (two wells/cAMP concentration).
Each assay microtiter plate contained also wells with vehicle controls instead of compound as controls for L-Glutamic acid induced signal (negative control; 100% CTL; 10 uM L-Glutamic acid+1 uM forskolin+0.5 mM IBMX+1% DMSO) and wells with vehicle controls without L-Glutamic acid as controls for non-specific changes in signal (positive control; 0% CTL; 0 uM L-Glutamic acid+1 uM forskolin+0.5 mM IBMX+1% DMSO).
The analysis of the data is performed by the calculation the ratio between the emission at 665 nm and the emission at 615 nm (Em665/Em615 ratio). Thereafter the signals of the compounds are normalized using the positive and negative controls by the following formula:
PoC=100×((Signal Sample−Positive Control)/(Negative Control−Positive Control))

Chain of human metabotropic Glutamate 4 receptor (mGluR4) (Q14833 33-912): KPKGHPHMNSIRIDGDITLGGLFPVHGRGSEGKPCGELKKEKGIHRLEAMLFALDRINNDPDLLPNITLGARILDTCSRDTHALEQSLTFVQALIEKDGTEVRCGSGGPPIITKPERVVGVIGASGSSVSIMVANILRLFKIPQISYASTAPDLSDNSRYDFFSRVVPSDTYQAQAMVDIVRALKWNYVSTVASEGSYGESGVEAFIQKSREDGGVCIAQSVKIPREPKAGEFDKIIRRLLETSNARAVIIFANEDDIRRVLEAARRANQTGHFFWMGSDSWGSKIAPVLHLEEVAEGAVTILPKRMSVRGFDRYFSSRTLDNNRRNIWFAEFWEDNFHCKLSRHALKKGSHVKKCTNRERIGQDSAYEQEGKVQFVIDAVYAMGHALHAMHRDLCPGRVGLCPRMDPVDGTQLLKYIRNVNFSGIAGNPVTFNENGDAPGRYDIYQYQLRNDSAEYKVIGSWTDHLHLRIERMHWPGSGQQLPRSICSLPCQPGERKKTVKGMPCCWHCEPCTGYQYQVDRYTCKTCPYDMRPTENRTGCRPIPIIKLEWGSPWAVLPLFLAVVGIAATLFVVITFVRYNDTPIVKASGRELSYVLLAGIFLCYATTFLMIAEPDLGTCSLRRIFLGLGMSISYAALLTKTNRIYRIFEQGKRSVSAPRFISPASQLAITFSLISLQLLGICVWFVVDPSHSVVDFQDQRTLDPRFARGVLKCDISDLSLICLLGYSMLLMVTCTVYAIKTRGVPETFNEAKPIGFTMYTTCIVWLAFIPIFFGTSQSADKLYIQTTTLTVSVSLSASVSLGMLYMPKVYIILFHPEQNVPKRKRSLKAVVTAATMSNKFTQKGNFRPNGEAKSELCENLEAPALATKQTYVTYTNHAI

| Structure (SMILES) | IC50 |
| --- | --- |
| CCn1c(C(NC(=O)c2cnc(C)cn2)C2CCOC2)nc2cc(F)c(F)cc21 (single isomer, unassigned) [Example 160, N-[(1-ethyl-5,6-difluoro-1H-1,3-benzodiazol-2-yl)(oxolan-3-yl)methyl]-5-methylpyrazine-2-carboxamide] | 47 nM |
| CCn1c(C(NC(=O)c2cnc(C)cn2)C2CCOC2)nc2cc(Cl)ccc21 (single isomer, unassigned) [Example 161, N-[(5-chloro-1-ethyl-1H-1,3-benzodiazol-2-yl)(oxolan-3-yl)methyl]-5-methylpyrazine-2-carboxamide] | 14 nM |
| CCn1c(C(NC(=O)c2cnc(C)cn2)C2CCOC2)nc2cc(Cl)ccc21 (single isomer, unassigned) [Example 162, N-[(5-chloro-1-ethyl-1H-1,3-benzodiazol-2-yl)(oxolan-3-yl)methyl]-5-methylpyrazine-2-carboxamide] | 30 nM |
| CCn1c(C(NC(=O)c2cnc(C)cn2)C2CCOC2)nc2ccc(Cl)cc21 (single isomer, unassigned) [Example 163, N-[(6-chloro-1-ethyl-1H-1,3-benzodiazol-2-yl)(oxolan-3-yl)methyl]-5-methylpyrazine-2-carboxamide] | 27 nM |
| CCn1c(C(NC(=O)c2cnc(C)cn2)C2CCOC2)nc2ccc(Cl)cc21 (single isomer, unassigned) [Example 164, N-[(6-chloro-1-ethyl-1H-1,3-benzodiazol-2-yl)(oxolan-3-yl)methyl]-5-methylpyrazine-2-carboxamide] | 35 nM |
| CCn1c([C@@H](NC(=O)c2cnc(C)cn2)C2CC2)nc2cc(F)ccc21 [Example 1, N-[(S)-cyclopropyl(1-ethyl-5-fluoro-1H-1,3-benzodiazol-2-yl)methyl]-5-methylpyrazine-2-carboxamide] | 4 nM |
| COCCn1c([C@@H](NC(=O)c2cnc(C)cn2)[C@@H](C)OC)nc2cc(OC(F)(F)F)ccc21 [Example 2, N-[(1R,2R)-2-methoxy-1-[1-(2-methoxyethyl)-5-(trifluoromethoxy)-1H-1,3-benzodiazol-2-yl]propyl]-5-methylpyrazine-2-carboxamide] | 2 nM |
| CCn1c([C@@H](NC(=O)c2cnc(C(F)F)cn2)C2CC2)nc2cc(F)ccc21 [Example 3, N-[(S)-cyclopropyl(1-ethyl-5-fluoro-1H-1,3-benzodiazol-2-yl)methyl]-5-(difluoromethyl)pyrazine-2-carboxamide] | 3 nM |
| O=C(N[C@H](c1nc2cc(F)ccc2n1CC(F)F)C1CC1)c1cnc(C(F)F)cn1 [Example 4, N-[(S)-cyclopropyl[1-(2,2-difluoroethyl)-5-fluoro-1H-1,3-benzodiazol-2-yl]methyl]-5-(difluoromethyl)pyrazine-2-carboxamide] | 4 nM |
| COCCn1c([C@@H](NC(=O)c2cnc(C(F)F)cn2)C2CC2)nc2cc(F)ccc21 [Example 5, N-[(S)-cyclopropyl[5-fluoro-1-(2-methoxyethyl)-1H-1,3-benzodiazol-2-yl]methyl]-5-(difluoromethyl)pyrazine-2-carboxamide] | 5 nM |
| COCCn1c([C@@H](NC(=O)c2cnc(C)cn2)C2CC2)nc2cc(F)ccc21 [Example 6, N-[(S)-cyclopropyl[5-fluoro-1-(2-methoxyethyl)-1H-1,3-benzodiazol-2-yl]methyl]-5-methylpyrazine-2-carboxamide] | 7 nM |
| Cc1cnc(C(=O)N[C@H](c2nc3cc(F)ccc3n2C(C)C)C2CC2)cn1 [Example 7, N-[(S)-cyclopropyl[5-fluoro-1-(propan-2-yl)-1H-1,3-benzodiazol-2-yl]methyl]-5-methylpyrazine-2-carboxamide] | 4 nM |
| COCCn1c([C@@H](NC(=O)c2cnc(C)cn2)C2CC2)nc2cc(Cl)ccc21 [Example 8, N-[(S)-[5-chloro-1-(2-methoxyethyl)-1H-1,3-benzodiazol-2-yl](cyclopropyl)methyl]-5-methylpyrazine-2-carboxamide] | 3 nM |
| Cc1cnc(C(=O)N[C@H](c2nc3c(F)c(C)ccc3n2CC(F)F)C2CC2)cn1 [Example 9, N-[(S)-cyclopropyl[1-(2,2-difluoroethyl)-4-fluoro-5-methyl-1H-1,3-benzodiazol-2-yl]methyl]-5-methylpyrazine-2-carboxamide] | 4 nM |
| Cc1cnc(C(=O)N[C@H](c2nc3cc(F)ccc3n2CC(F)F)C2CC2)cn1 [Example 10, N-[(S)-cyclopropyl[1-(2,2-difluoroethyl)-5-fluoro-1H-1,3-benzodiazol-2-yl]methyl]-5-methylpyrazine-2-carboxamide] | 5 nM |
| COCCn1c([C@@H](NC(=O)c2cnc(C(F)F)cn2)C2CC2)nc2cc(Cl)ccc21 [Example 11, N-[(S)-[5-chloro-1-(2-methoxyethyl)-1H-1,3-benzodiazol-2-yl](cyclopropyl)methyl]-5-(difluoromethyl)pyrazine-2-carboxamide] | 3 nM |
| COCCn1c([C@@H](NC(=O)c2cnc(C)cn2)C2CC2)nc2cc(OC(F)(F)F)ccc21 [Example 12, N-[(S)-cyclopropyl[1-(2-methoxyethyl)-5-(trifluoromethoxy)-1H-1,3-benzodiazol-2-yl]methyl]-5-methylpyrazine-2-carboxamide] | 2 nM |
| COCCn1c([C@@H](NC(=O)c2cnc(C)cn2)C2CC2)nc2cc(OC(F)F)ccc21 [Example 13, N-[(S)-cyclopropyl[5-(difluoromethoxy)-1-(2-methoxyethyl)-1H-1,3-benzodiazol-2-yl]methyl]-5-methylpyrazine-2-carboxamide] | 7 nM |
| Cc1cnc(C(=O)N[C@H](c2nc3cc(C)c(F)cc3n2CC(F)F)C2CC2)cn1 [Example 15, N-[(S)-cyclopropyl[1-(2,2-difluoroethyl)-6-fluoro-5-methyl-1H-1,3-benzodiazol-2-yl]methyl]-5-methylpyrazine-2-carboxamide] | 3 nM |
| COCCn1c([C@@H](NC(=O)c2cnc(C)cn2)C2CC2)nc2cc(F)c(F)cc21 [Example 16, N-[(S)-cyclopropyl[5,6-difluoro-1-(2-methoxyethyl)-1H-1,3-benzodiazol-2-yl]methyl]-5-methylpyrazine-2-carboxamide] | 5 nM |
| CCn1c([C@@H](NC(=O)c2cnc(C)cn2)C(C)C)nc2cc(F)ccc21 [Example 17, N-[(1S)-1-(1-ethyl-5-fluoro-1H-1,3-benzodiazol-2-yl)-2-methylpropyl]-5-methylpyrazine-2-carboxamide] | 4 nM |
| COCCn1c([C@@H](NC(=O)c2cnc(C)cn2)C2CC2)nc2c(C)c(C#N)ccc21 [Example 18, N-[(S)-[5-cyano-1-(2-methoxyethyl)-4-methyl-1H-1,3-benzodiazol-2-yl](cyclopropyl)methyl]-5-methylpyrazine-2-carboxamide] | 7 nM |
| COCCn1c(C(NC(=O)c2cnc(C)cn2)C2CCCO2)nc2cc(C(F)(F)F)ccc21 (centres unmarked) [Example 19-2, N-{[1-(2-methoxyethyl)-5-(trifluoromethyl)-1H-1,3-benzodiazol-2-yl](oxolan-2-yl)methyl}-5-methylpyrazine-2-carboxamide] | 62 nM |
| COCCn1c([C@@H](NC(=O)c2cnc(C)cn2)C2CC2)nc2cc(Cl)c(F)cc21 [Example 21] | 3 nM |
| CO[C@H](C)[C@H](NC(=O)c1cnc(C)cn1)c1nc2cc(C(F)(F)F)ccc2n1C [Example 22, N-[(1R,2R)-2-methoxy-1-[1-methyl-5-(trifluoromethyl)-1H-1,3-benzodiazol-2-yl]propyl]-5-methylpyrazine-2-carboxamide] | 6 nM |
| COCCn1c([C@@H](NC(=O)c2cnc(C(F)F)cn2)[C@@H]2CCOC2)nc2cc(OC(F)(F)F)ccc21 [Example 23, 5-(difluoromethyl)-N-[(S)-[1-(2-methoxyethyl)-5-(trifluoromethoxy)-1H-1,3-benzodiazol-2-yl][(3S)-oxolan-3-yl]methyl]pyrazine-2-carboxamide] | 4 nM |
